From US12685312B2, “Sulfonamide apyrase inhibitors” (Texas Crop Science, Inc., priority 2022, dated 2026)

Assays:
apyrase = experiment: Screen for apyrase inhibitors (Method 1, in vitro phosphate-release absorbance assay); format: biochemical; conditions: inhibitor conc at 1 mM stock, 1 hr room temperature, absorbance 630 nm; rounded average of two assay results
Outline: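 Phosphate-release colorimetric assay (Windsor method) in 60 mM Hepes, 3 mM MgCl2, 3 mM CaCl2, 3 mM ATP, pH 6.5, with compound or DMSO control added. Released phosphate developed with ammonium molybdate and ascorbic acid/TCA, then stopped with citrate/acetic acid.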

[1] = system: plant pathogenic fungi (Zymoseptoria tritici strains, Microdochium nivale); experiment: In vitro combination assay (Method 2), overall comparison with Roux Compound 13; format: cell-based; conditions: azoxystrobin, fluxapyroxad, desthio prothioconazole; three fungal strains
Description: (§1) Method 2: In Vitro Assessment of Combination Activity
(§2) Selected compounds were assessed in combination with fungicides against a range of commercially important plant pathogenic fungi.
(§3) The test was conducted as follows. A fungicide was applied to a fungal plant pathogen at a rate slightly below that at which it gave any control, in combination with a suitable dose of the test compound. The test compound was recorded as active if control of the pathogen was observed.
(§4) In more detail, the test was conducted as follows. For each combination of fungicide, pathogen and test compound, the following wells were used. Well 1 contained a fungal pathogen growing on agar, and a fungicide at a rate just below that at which it gave any control of the pathogen. Well 2 was the same as Well 1, except that the test compound was also added at Rate 1. Well 3 was the same as Well 2, except that the test compound was added at Rate 2, where Rate 2 was higher than Rate 1. Finally, as a benchmark, Well 4 was the same as Well 1, except that it contained the fungicide at a higher rate, at which it gave partial control of the pathogen. Each of the Wells 1 to 4 were run in duplicate, giving a total of 8 wells for each combination of fungicide, pathogen and test compound. For each well, after a suitable period of incubation, a visual assessment of the % control of the pathogen by the fungicide was made.
(§5) The following fungicides were used in this assay: azoxystrobin, fluxapyroxad, and desthio prothioconazole. The following fungal pathogens were used in this assay: First, a strain of Zymoseptoria tritici with a reduced susceptibility to strobilurin fungicides; second a strain of Zymoseptoria tritici with a reduced susceptibility to SDHI fungicides (i.e., those that inhibit succinate dehydrogenase); and third, Microdochium nivale.

[2] = system: Asian Soya Rust (Phakopsora pachyrhizi) on soybean; experiment: Greenhouse crop test (Method 3), Asian Soya Rust on soybean; format: in vivo; conditions: Proline 0.15 L/ha
Description: (§6) Method 3: Greenhouse Crop Tests
(§7) In this method, exemplary compounds were evaluated for their ability to control Zymoseptoria tritici on wheat, Botrytis cinerea on tomatoes, Asian Soya Rust (Phakopsora pachyrhizi) on soybean, and Brown Rust (Puccinia recondita) on wheat, in a controlled greenhouse environment in combination with one of four fungicides, Amistar, Imtrex, Proline or Balaya. In these studies, soybean cultivar Siverka, tomato (Money maker) and wheat plants (JB Diego) were used. […] Each plant was evaluated once the disease symptoms were fully expressed between seven to twenty days (depending on the pathogen) for % control of the disease. […] Also, each commercial fungicide was tested on its own as a part of each treatment, this being benchmark against which the experimental compounds were evaluated. […]

[3] = system: Zymoseptoria tritici on wheat; experiment: Greenhouse crop test (Method 3), Zymoseptoria tritici on wheat; format: in vivo; conditions: for enhancement of Imtrex over Imtrex alone: Imtrex 0.02 L/ha
Description: as §6
In this method, exemplary compounds were evaluated for their ability to control Zymoseptoria tritici on wheat, Botrytis cinerea on tomatoes, Asian Soya Rust (Phakopsora pachyrhizi) on soybean, and Brown Rust (Puccinia recondita) on wheat, in a controlled greenhouse environment in combination with one of four fungicides, Amistar, Imtrex, Proline or Balaya. In these studies, soybean cultivar Siverka, tomato (Money maker) and wheat plants (JB Diego) were used. Seeds were sown in 9 cm diameter pots to a depth of 1 to 2 cm using Petersfield potting compost (75% medium grade peat, 12% screened sterilized loam, 3% medium grade vermiculite, 10% grit (5 mm screened, lime free), 1.5 kg PG mix per m3, lime to pH5.5-6.0 and wetting agent (Vitax Ultrawet 200 ml per m3) and germinated/grown at 23 C under a 16 h day/8 h night light regime. Plants were treated two to three weeks after sowing when they were at the BBCH 11 growth stage (first pair of true leaves (unifoliate) unfolded. A track sprayer was used to treat the plants with the mixture of commercial fungicide and test compound using a water volume of 200 L/ha. Plants were inoculated with the appropriate fungi (pathogen) 24 hours after treatment. Fungal pathogens used were Botrytis cinerea (Grey mold on tomato plants), Zymoseptoria tritici (Septoria leaf blotch on wheat plants), Puccinia triticina (Brown rust on wheat plants) and Phakopsora pachyrhizi (Asian soy rust on soybean plants). Four replicates were used for each combination of fungicide, pathogen and test compound. Each plant was evaluated once the disease symptoms were fully expressed between seven to twenty days (depending on the pathogen) for % control of the disease. Appropriate controls were used for all experiments, including an ‘inoculation check’ wherein plants were inoculated with their specific pathogen to assess disease levels. Also, each commercial fungicide was tested on its own as a part of each treatment, this being benchmark against which the experimental compounds were evaluated. […] That is, the present compounds, although not fungicidal by themselves, enhance the activity of fungicides, thus the enhancer compounds work synergistically in combination with fungicides to control disease.
In these studies the fungicide was applied at the following rates

[4] = system: Botrytis cinerea on tomatoes; experiment: Greenhouse crop test (Method 3), Botrytis cinerea on tomatoes; format: in vivo; conditions: Botrytis cinerea on tomato, Imtrex 0.005 L/ha
Description: as §6
In this method, exemplary compounds were evaluated for their ability to control Zymoseptoria tritici on wheat, Botrytis cinerea on tomatoes, Asian Soya Rust (Phakopsora pachyrhizi) on soybean, and Brown Rust (Puccinia recondita) on wheat, in a controlled greenhouse environment in combination with one of four fungicides, Amistar, Imtrex, Proline or Balaya. In these studies, soybean cultivar Siverka, tomato (Money maker) and wheat plants (JB Diego) were used. Seeds were sown in 9 cm diameter pots to a depth of 1 to 2 cm using Petersfield potting compost (75% medium grade peat, 12% screened sterilized loam, 3% medium grade vermiculite, 10% grit (5 mm screened, lime free), 1.5 kg PG mix per m3, lime to pH5.5-6.0 and wetting agent (Vitax Ultrawet 200 ml per m3) and germinated/grown at 23 C under a 16 h day/8 h night light regime. Plants were treated two to three weeks after sowing when they were at the BBCH 11 growth stage (first pair of true leaves (unifoliate) unfolded. A track sprayer was used to treat the plants with the mixture of commercial fungicide and test compound using a water volume of 200 L/ha. Plants were inoculated with the appropriate fungi (pathogen) 24 hours after treatment. Fungal pathogens used were Botrytis cinerea (Grey mold on tomato plants), Zymoseptoria tritici (Septoria leaf blotch on wheat plants), Puccinia triticina (Brown rust on wheat plants) and Phakopsora pachyrhizi (Asian soy rust on soybean plants). Four replicates were used for each combination of fungicide, pathogen and test compound. Each plant was evaluated once the disease symptoms were fully expressed between seven to twenty days (depending on the pathogen) for % control of the disease. Appropriate controls were used for all experiments, including an ‘inoculation check’ wherein plants were inoculated with their specific pathogen to assess disease levels. Also, each commercial fungicide was tested on its own as a part of each treatment, this being benchmark against which the experimental compounds were evaluated. […]

Microdochium nivale = experiment: In vitro assessment of combination activity with fungicides (Method 2); format: cell-based; conditions: fungicide at a rate just below that giving any control; visual % control;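 also: scored as inactive active or highly active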
Description: as §1, §2, §3, §4, §5

[5] = system: Zymoseptoria tritici with a reduced susceptibility to SDHI fungicides; experiment: as above; format: cell-based; conditions: fungicide at a rate just below that giving any control; visual % control;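 also: scored as inactive active or highly active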
Description: as §1, §2, §3, §4, §5

[6] = system: Zymoseptoria tritici with a reduced susceptibility to strobilurin fungicides; experiment: as above; format: cell-based; conditions: fungicide at a rate just below that giving any control; visual % control;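 also: scored as inactive active or highly active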
Description: as §1, §2, §3, §4, §5

[7] = system: Brown Rust (Puccinia recondita) on wheat; experiment: Greenhouse crop test (Method 3), Brown Rust on wheat; format: in vivo; conditions: Imtrex 0.45 L/ha
Description: as §6, §7

## O=C1CSc2ccc(C(=O)Nc3cccc(S(=O)(=O)Nc4ccc(Br)cc4)c3)cc2N1 [I-198, N-(3-(N-(4-bromophenyl)sulfamoyl)phenyl)-3-oxo-3,4-dihydro-2H-benzo[b][1,4]thiazine-6-carboxamide]
apyrase
  % Inhibition of Apyrase: 79%
[1]
  enhancer activity in the combination assay compared with Roux Compound 13: superior enhancer activity than Roux Compound 13
[2]
  enhancement of the activity of Proline: over 90%
[3]
  enhancement of Imtrex over Imtrex alone: about 30%

## O=C(Nc1ccc2c(c1)OCO2)c1ccccc1NS(=O)(=O)c1cccc(C(F)(F)F)c1 [I-213, N-(benzo[d][1,3]dioxol-5-yl)-2-((3-(trifluoromethyl)phenyl)sulfonamido) benzamide]
apyrase
  % Inhibition of Apyrase: 71%
[1]
  enhancer activity in the combination assay compared with Roux Compound 13: superior enhancer activity than Roux Compound 13
[4]
  enhancement in combination with Imtrex over Imtrex alone: about 30%

## O=C(Nc1ccc(Br)cc1)c1cccc(S(=O)(=O)Nc2ccc(F)cc2)c1 [I-222, N-(4-bromophenyl)-3-(N-(4-fluorophenyl)sulfamoyl)benzamide]
apyrase
  % Inhibition of Apyrase: 71%
[1]
  enhancer activity in the combination assay compared with Roux Compound 13: superior enhancer activity than Roux Compound 13
[2]
  enhancement of the activity of Proline: greater than 60%

## O=C(Nc1cccc(NS(=O)(=O)c2ccc(Br)cc2Cl)c1)c1ccco1 [I-234, N-(3-((4-bromo-2-chlorophenyl)sulfonamido)phenyl)furan-2-carboxamide]
apyrase
  % Inhibition of Apyrase: 66%
Microdochium nivale
  enhancement of activity of desthio prothioconazole: enhancing fungicidal activity
  enhancement of activity of fluxapyroxad: enhancing fungicidal activity
[5]
  enhancement of activity of desthio prothioconazole: enhancing fungicidal activity
  enhancement of activity of fluxapyroxad: enhancing fungicidal activity
[6]
  enhancement of activity of desthio prothioconazole: enhancing fungicidal activity
[1]
  enhancer activity in the combination assay compared with Roux Compound 13: superior enhancer activity than Roux Compound 13

## Cc1ccc(C(=O)Nc2ccccc2S(=O)(=O)Nc2ccccc2)cc1F [I-236, 3-fluoro-4-methyl-N-(2-(N-phenylsulfamoyl)phenyl)benzamide]
apyrase
  % Inhibition of Apyrase: 30%
[1]
  enhancer activity in the combination assay compared with Roux Compound 13: superior enhancer activity than Roux Compound 13
[4]
  enhancement in combination with Imtrex over Imtrex alone: about 30%

## O=C(Nc1cccc(-c2ccn[nH]2)c1)c1cccc(S(=O)(=O)Nc2ccc(Br)cc2)c1 [I-239, N-(3-(1H-pyrazol-5-yl)phenyl)-3-(N-(4-bromophenyl)sulfamoyl)benzamide]
apyrase
  % Inhibition of Apyrase: 73%
[1]
  enhancer activity in the combination assay compared with Roux Compound 13: superior enhancer activity than Roux Compound 13
[3]
  enhancement of Imtrex over Imtrex alone: about 30%

## Cc1ccc(NS(=O)(=O)c2ccc(C(=O)N3CCc4ccccc43)cc2)cc1 [I-385, 4-(indoline-1-carbonyl)-N-(p-tolyl)benzenesulfonamide]
apyrase
  % Inhibition of Apyrase: 65%
[3]
  enhancement of Imtrex over Imtrex alone: greater than 40%

## NS(=O)(=O)c1cccc(NC(=O)c2ccc(S(=O)(=O)Nc3ccc(Cl)cc3)cc2)c1 [I-387, 4-(N-(4-chlorophenyl)sulfamoyl)-N-(3-sulfamoylphenyl)benzamide]
apyrase
  % Inhibition of Apyrase: 65%
[4]
  enhancement in combination with Imtrex over Imtrex alone: about 30%

## O=C(Nc1ccc2c(c1)OCO2)c1ccc(S(=O)(=O)Nc2ccccc2Cl)cc1 [I-388, N-(benzo[d][1,3]dioxol-5-yl)-4-(N-(2-chlorophenyl)sulfamoyl)benzamide]
apyrase
  % Inhibition of Apyrase: 63%
[3]; Balaya 0.0015 L/ha
  enhancement of Balaya: greater than 45%

## O=C(Nc1ccccc1)c1ccc(S(=O)(=O)Nc2ccccc2)cc1 [I-392, N-phenyl-4-(N-phenylsulfamoyl)benzamide]
apyrase
  % Inhibition of Apyrase: 59%
Microdochium nivale
  enhancement of activity of desthio prothioconazole: highly active
[5]
  enhancement of activity of azoxystrobin: enhanced the activity
  enhancement of activity of desthio prothioconazole: highly active
[6]
  enhancement of activity of azoxystrobin: enhanced the activity
  enhancement of activity of desthio prothioconazole: highly active

## Cc1ccc(NC(=O)c2cccc(S(=O)(=O)Nc3cccc(Cl)c3)c2)nc1 [I-595, 3-(N-(3-chlorophenyl)sulfamoyl)-N-(5-methylpyridin-2-yl)benzamide]
apyrase
  % Inhibition of Apyrase: 36%
[7]
  additional Brown Rust control benefit in combination with Imtrex over Imtrex alone: greater than 40%

## O=C(Nc1ccccc1S(=O)(=O)N1CCCC1)c1cccc(C(F)(F)F)c1 [I-826, N-(2-(pyrrolidin-1-ylsulfonyl)phenyl)-3-(trifluoromethyl)benzamide]
apyrase
  % Inhibition of Apyrase: 40%
[7]
  additional Brown Rust control benefit in combination with Imtrex over Imtrex alone: greater than 50%

## O=C(Nc1cccc([N+](=O)[O-])c1)c1cccc(S(=O)(=O)Nc2ccc(Br)cc2)c1 [Roux compound 13, reference compound]
Microdochium nivale
  enhancement of activity of azoxystrobin: enhancing the activity
[5]
  enhancement of activity of azoxystrobin: failing to enhance activity
  enhancement of activity of desthio prothioconazole: failing to enhance activity
  enhancement of activity of fluxapyroxad: failing to enhance activity
[6]
  enhancement of activity of azoxystrobin: failing to enhance activity
  enhancement of activity of desthio prothioconazole: failing to enhance activity
  enhancement of activity of fluxapyroxad: failing to enhance activity
[1]
  enhancer activity in the combination assay compared with Roux Compound 13: little or no activity
